Experimental data reported in article PMC6646405, “A quantitative, high-throughput method identifies protein–glycan interactions via mass spectrometry” (Communications Biology, 2019).

Target: T1, human neuraminidase 2 (NEU2) (Homo sapiens, UniProt Q9Y3R4)
T1 construct: made in house
Assay: Time-resolved CUPRA enzyme kinetics, NEU2
Format: biochemical
Settings: for fraction of OSmod substrate remaining (Fig2d time course): 200 mM aqueous ammonium acetate, pH 7, 25 °C
Method: To apply CUPRA in this capacity, two or more substrates of interest are introduced, as their corresponding OS^mod, to a solution containing the desired CAZyme. Changes in substrate concentrations, as well as those of the corresponding enzyme products, are determined from the relative abundances of OS^mod-bound ^UniPproxy measured by time-resolved ESI-MS. Because of the manner in which the substrate and product concentrations are measured, the assay is insensitive to differences in their ESI-MS response factors and, consequently, independent of the nature of the chemical modification catalyzed by the enzyme. As a result, time-resolved CUPRA eliminates the need for calibration curves or internal standards, which are generally required with ESI-MS-based enzyme kinetics assays.
Two glycosyl hydrolases, human neuraminidase 2 (NEU2) and 3 (NEU3), which preferentially cleave α2-3-linked Neu5Ac residues, were used to illustrate the ease with which time-resolved CUPRA can establish substrate specificities. We incubated libraries of the Neu5Ac-containing OS^mod with NEU2 (Fig. 2d) or NEU3 (Fig. 2e) and monitored their conversion to the corresponding desialylated OS^mod products at pH 7 and 25 °C. […] All OS^mod containing terminal α2-3-linked Neu5Ac were substrates of NEU3, with initial rates that are 10–50% that of HMO03. […] Substrates containing branching after the α2-3-linkage were poor substrates for both enzymes. […] We note, however, that previous reports have examined NEU2 and NEU3 activity under more acidic solution conditions. Furthermore, the nature of the substrate aglycone may influence the activity of human neuraminidases.
The time-resolved CUPRA measurements were performed by manually mixing aliquots of stock solutions of NEU2 or NEU3 (final concentration 2 µM), ^UniPproxy (5 µM), substrates (Si, 5 µM each) and CUPRA linker (5 µM), all in 200 mM aqueous ammonium acetate at pH 7 and 25 °C. ESI mass spectra were collected continuously at the rate of 30 scans min^−1 starting at 3 min after mixing. The adduct distributions measured for the ^UniPproxy – CUPRA linker complex ions were used to apply SWARM. The time-dependent fractional abundance of a given substrate (FS,i) (Eq. 12), which was used to represent reaction progress, was calculated from the total Ab of ^UniPproxy bound to Si and corresponding product (Pi), corrected for Si consumed prior to data acquisition.12 FS,i=Ab^UniPproxySi/Ab^UniPproxySi+Ab^UniPproxyPi

T1 sequence (Q9Y3R4 whole entry): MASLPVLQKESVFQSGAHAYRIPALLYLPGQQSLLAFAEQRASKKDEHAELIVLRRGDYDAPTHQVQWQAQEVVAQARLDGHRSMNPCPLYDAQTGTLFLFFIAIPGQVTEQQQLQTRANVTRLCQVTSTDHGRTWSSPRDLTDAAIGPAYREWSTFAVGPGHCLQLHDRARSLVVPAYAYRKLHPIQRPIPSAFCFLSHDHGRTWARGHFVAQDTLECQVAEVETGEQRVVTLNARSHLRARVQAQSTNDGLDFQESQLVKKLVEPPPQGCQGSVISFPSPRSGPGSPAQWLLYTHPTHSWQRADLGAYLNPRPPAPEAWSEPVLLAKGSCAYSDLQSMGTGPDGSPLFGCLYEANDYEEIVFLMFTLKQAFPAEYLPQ

Q: How did the “relative abundance of OSmod substrate (Fig2d time course)” value (shortened to “relative abundance of OSmod substrate”) (time 0 min) turn out when `CC(=O)N[C@H]1[C@H](O[C@@H]2[C@H](O[C@]3(C(=O)O)C[C@H](O)[C@@H](NC(C)=O)[C@H]([C@H](O)[C@@H](CO)O[C@]4(C(=O)O)C[C@H](O)[C@@H](NC(C)=O)[C@H]([C@H](O)[C@H](O)CO)O4)O3)[C@@H](O)[C@H](O[C@H]3[C@H](O)[C@@H](O)[C@H](N(CCOCCOCCNC(=O)[C@H](Cc4ccccc4)NC(=O)[C@H](Cc4ccccc4)NC(=O)CCCC(=O)NCCc4ccc(S(N)(=O)=O)cc4)C(C)=O)O[C@@H]3CO)O[C@@H]2CO)O[C@H](CO)[C@H](O)[C@@H]1O` [GA10, GalNAcβ1-4(Neu5Acα2-8 Neu5Acα2-3)Galβ1-4Glc-CL] was run?
A: 0.903

Q: What about the “relative abundance of OSmod substrate” value (time 1 min) of the same compound?
A: 0.9038

Q: What about the “relative abundance of OSmod substrate” value (time 2 min) of the same compound?
A: 0.8996

Q: What about the “relative abundance of OSmod substrate” value (time 3 min) of the same compound?
A: 0.8888

Q: What about the “relative abundance of OSmod substrate” value (time 4 min) of the same compound?
A: 0.9044

Q: What about the “relative abundance of OSmod substrate” value (time 7 min) of the same compound?
A: 0.9102

Q: And the “relative abundance of OSmod substrate” value (time 8 min)?
A: 0.9068

Q: And the “relative abundance of OSmod substrate” value (time 9 min)?
A: 0.9088

Q: And the “relative abundance of OSmod substrate” value (time 10 min)?
A: 0.9065

Q: What about the “relative abundance of OSmod substrate” value (time 11 min) of the same compound?
A: 0.9097

Q: And the “relative abundance of OSmod substrate” value (time 12 min)?
A: 0.9035

Q: What about the “relative abundance of OSmod substrate” value (time 13 min) of the same compound?
A: 0.9029

Q: What about the “relative abundance of OSmod substrate” value (time 14 min) of the same compound?
A: 0.9064

Q: What about the “relative abundance of OSmod substrate” value (time 15 min) of the same compound?
A: 0.8954

Q: What about the “relative abundance of OSmod substrate” value (time 16 min) of the same compound?
A: 0.9063

Q: What about the “relative abundance of OSmod substrate” value (time 17 min) of the same compound?
A: 0.9123

Q: And the “relative abundance of OSmod substrate” value (time 18 min)?
A: 0.9135

Q: What about the “relative abundance of OSmod substrate” value (time 19 min) of the same compound?
A: 0.9061

Q: What about the “relative abundance of OSmod substrate” value (time 20 min) of the same compound?
A: 0.9106

Q: And the “relative abundance of OSmod substrate” value (time 21 min)?
A: 0.9179

Q: And the “relative abundance of OSmod substrate” value (time 22 min)?
A: 0.9134

Q: And the “relative abundance of OSmod substrate” value (time 23 min)?
A: 0.9095

Q: And the “relative abundance of OSmod substrate” value (time 24 min)?
A: 0.9035

Q: What about the “relative abundance of OSmod substrate” value (time 25 min) of the same compound?
A: 0.9132

Q: What about the “relative abundance of OSmod substrate” value (time 26 min) of the same compound?
A: 0.907

Q: And the “relative abundance of OSmod substrate” value (time 27 min)?
A: 0.9132

Q: What about the “relative abundance of OSmod substrate” value (time 28 min) of the same compound?
A: 0.9116

Q: And the “relative abundance of OSmod substrate” value (time 29 min)?
A: 0.9094

Q: What about the “relative abundance of OSmod substrate” value (time 30 min) of the same compound?
A: 0.9084

Q: What about the “relative abundance of OSmod substrate” value (time 31 min) of the same compound?
A: 0.9073

Q: What about the “relative abundance of OSmod substrate” value (time 32 min) of the same compound?
A: 0.915

Q: And the “relative abundance of OSmod substrate” value (time 33 min)?
A: 0.9164

Q: What about the “relative abundance of OSmod substrate” value (time 34 min) of the same compound?
A: 0.9136

Q: And the “relative abundance of OSmod substrate” value (time 35 min)?
A: 0.9113

Q: And the “relative abundance of OSmod substrate” value (time 36 min)?
A: 0.9057

Q: And the “relative abundance of OSmod substrate” value (time 37 min)?
A: 0.9031

Q: What about the “relative abundance of OSmod substrate” value (time 38 min) of the same compound?
A: 0.9043

Q: What about the “relative abundance of OSmod substrate” value (time 39 min) of the same compound?
A: 0.895

Q: And the “relative abundance of OSmod substrate” value (time 40 min)?
A: 0.8976

Q: And the “relative abundance of OSmod substrate” value (time 41 min)?
A: 0.8827

Q: What about the “relative abundance of OSmod substrate” value (time 42 min) of the same compound?
A: 0.9129

Q: What about the “relative abundance of OSmod substrate” value (time 43 min) of the same compound?
A: 0.905

Q: What about the “relative abundance of OSmod substrate” value (time 44 min) of the same compound?
A: 0.9072

Q: And the “relative abundance of OSmod substrate” value (time 45 min)?
A: 0.9125

Q: And the “relative abundance of OSmod substrate” value (time 46 min)?
A: 0.9034

Q: What about the “relative abundance of OSmod substrate” value (time 47 min) of the same compound?
A: 0.9131

Q: What about the “relative abundance of OSmod substrate” value (time 48 min) of the same compound?
A: 0.9147

Q: And the “relative abundance of OSmod substrate” value (time 49 min)?
A: 0.9115

Q: What about the “relative abundance of OSmod substrate” value (time 50 min) of the same compound?
A: 0.9161

Q: And the “relative abundance of OSmod substrate” value (time 51 min)?
A: 0.9162

Q: And the “relative abundance of OSmod substrate” value (time 52 min)?
A: 0.9166

Q: What about the “relative abundance of OSmod substrate” value (time 53 min) of the same compound?
A: 0.9066

Q: And the “relative abundance of OSmod substrate” value (time 54 min)?
A: 0.9094

Q: And the “relative abundance of OSmod substrate” value (time 55 min)?
A: 0.9043

Q: And the “relative abundance of OSmod substrate” value (time 56 min)?
A: 0.9097

Q: What about the “relative abundance of OSmod substrate” value (time 57 min) of the same compound?
A: 0.9071

Q: What about the “relative abundance of OSmod substrate” value (time 58 min) of the same compound?
A: 0.9137

Q: And the “relative abundance of OSmod substrate” value (time 59 min)?
A: 0.9089

Q: And the “relative abundance of OSmod substrate” value (time 60 min)?
A: 0.9084

Q: And the “relative abundance of OSmod substrate” value (time 61 min)?
A: 0.9152

Q: And the “relative abundance of OSmod substrate” value (time 62 min)?
A: 0.9099

Q: And the “relative abundance of OSmod substrate” value (time 63 min)?
A: 0.9041

Q: And the “relative abundance of OSmod substrate” value (time 64 min)?
A: 0.9

Q: What about the “relative abundance of OSmod substrate” value (time 65 min) of the same compound?
A: 0.9101

Q: What about the “relative abundance of OSmod substrate” value (time 66 min) of the same compound?
A: 0.9104

Q: What about the “relative abundance of OSmod substrate” value (time 67 min) of the same compound?
A: 0.9077

Q: What about the “relative abundance of OSmod substrate” value (time 68 min) of the same compound?
A: 0.9072

Q: And the “relative abundance of OSmod substrate” value (time 69 min)?
A: 0.9129

Q: What about the “relative abundance of OSmod substrate” value (time 70 min) of the same compound?
A: 0.9057

Q: And the “relative abundance of OSmod substrate” value (time 71 min)?
A: 0.9057

Q: And the “relative abundance of OSmod substrate” value (time 72 min)?
A: 0.9132

Q: And the “relative abundance of OSmod substrate” value (time 73 min)?
A: 0.9108

Q: And the “relative abundance of OSmod substrate” value (time 74 min)?
A: 0.9071

Q: What about the “relative abundance of OSmod substrate” value (time 75 min) of the same compound?
A: 0.9161

Q: What about the “relative abundance of OSmod substrate” value (time 76 min) of the same compound?
A: 0.9095

Q: And the “relative abundance of OSmod substrate” value (time 77 min)?
A: 0.9151

Q: What about the “relative abundance of OSmod substrate” value (time 78 min) of the same compound?
A: 0.9122

Q: What about the “relative abundance of OSmod substrate” value (time 79 min) of the same compound?
A: 0.9076

Q: And the “relative abundance of OSmod substrate” value (time 80 min)?
A: 0.9134

Q: And the “relative abundance of OSmod substrate” value (time 81 min)?
A: 0.9135

Q: And the “relative abundance of OSmod substrate” value (time 82 min)?
A: 0.9162

Q: What about the “relative abundance of OSmod substrate” value (time 83 min) of the same compound?
A: 0.9125

Q: What about the “relative abundance of OSmod substrate” value (time 84 min) of the same compound?
A: 0.9098

Q: And the “relative abundance of OSmod substrate” value (time 97 min)?
A: 0.9111

Q: What about the “relative abundance of OSmod substrate” value (time 98 min) of the same compound?
A: 0.9062

Q: What about the “relative abundance of OSmod substrate” value (time 99 min) of the same compound?
A: 0.9109

Q: And the “relative abundance of OSmod substrate” value (time 100 min)?
A: 0.915

Q: And the “relative abundance of OSmod substrate” value (time 101 min)?
A: 0.9087

Q: And the “relative abundance of OSmod substrate” value (time 102 min)?
A: 0.916

Q: What about the “relative abundance of OSmod substrate” value (time 103 min) of the same compound?
A: 0.9129

Q: What about the “relative abundance of OSmod substrate” value (time 104 min) of the same compound?
A: 0.9139

Q: What about the “relative abundance of OSmod substrate” value (time 105 min) of the same compound?
A: 0.9109

Q: And the “relative abundance of OSmod substrate” value (time 106 min)?
A: 0.908

Q: And the “relative abundance of OSmod substrate” value (time 107 min)?
A: 0.9138

Q: What about the “relative abundance of OSmod substrate” value (time 108 min) of the same compound?
A: 0.911

Q: And the “relative abundance of OSmod substrate” value (time 109 min)?
A: 0.9085

Q: What about the “relative abundance of OSmod substrate” value (time 110 min) of the same compound?
A: 0.8819

Q: And the “relative abundance of OSmod substrate” value (time 111 min)?
A: 0.9092

Q: What about the “relative abundance of OSmod substrate” value (time 112 min) of the same compound?
A: 0.9111

Q: What about the “relative abundance of OSmod substrate” value (time 113 min) of the same compound?
A: 0.9127

Q: And the “fraction of OSmod substrate remaining (Fig2d time course)” value (from here on “fraction of OSmod substrate remaining”) (time 114 min, time-resolved CUPRA)?
A: 0.9126

Q: What about the “fraction of OSmod substrate remaining” value (time 115 min, time-resolved CUPRA) of the same compound?
A: 0.9042

Q: What about the “fraction of OSmod substrate remaining” value (time 116 min, time-resolved CUPRA) of the same compound?
A: 0.909

Q: What about the “fraction of OSmod substrate remaining” value (time 117 min, time-resolved CUPRA) of the same compound?
A: 0.9097

Q: And the “fraction of OSmod substrate remaining” value (time 118 min, time-resolved CUPRA)?
A: 0.9085

Q: And the “fraction of OSmod substrate remaining” value (time 119 min, time-resolved CUPRA)?
A: 0.9043

Q: And the “fraction of OSmod substrate remaining” value (time 120 min, time-resolved CUPRA)?
A: 0.904

Q: And the “fraction of OSmod substrate remaining” value (time 121 min, time-resolved CUPRA)?
A: 0.904

Q: And the “fraction of OSmod substrate remaining” value (time 122 min, time-resolved CUPRA)?
A: 0.904

Q: What about the “fraction of OSmod substrate remaining” value (time 123 min, time-resolved CUPRA) of the same compound?
A: 0.904

Q: And the “fraction of OSmod substrate remaining” value (time 124 min, time-resolved CUPRA)?
A: 0.904

Q: And the “Relative activity NEU2” value (time-resolved CUPRA, 200 mM aqueous ammonium acetate pH 7, 25 °C, relative to HMO03)?
A: 0.000
